# Results as given in patent publication US20130280343A1, “Food Products Derived From Cannabinoid-Administered Livestock” (priority 2012, published 2013).
# Key:
# mice = conditions: orally administered; cited from earlier work
# [1] = system: mice injected with 5-Hydroxytryptamine (a nociceptive agent); conditions: orally administered; cited from earlier work
# [2] = system: free range broiler chickens; assay: dimethylheptylpyran capsules orally administered to free range broiler chickens; format: in vivo; conditions: 1 μg in cod liver oil capsules, twice-daily oral
# Description: In a final embodiment of the present invention, soft gel capsules containing 1 μg of dimethylheptylpyran dissolved in cod liver oil are twice-daily orally administered to free range broiler chickens. Dimethylheptylpyran is an extremely potent cannabinoid receptor agonist.
# humans [3] = assay: lowest observed effect level (LOEL) for psychoactive effects in humans; format: in vivo; conditions: orally administered
# Description: Contrasting their extremely low toxicity, cannabinoids generally have very low effective doses. […] In humans, the lowest observed effect level (LOEL) for psychoactive effects induced by orally administered Δ^9-THC is 0.04 mg/kg, or 3.2 mg for the average 80 kg adult human. As a result, the therapeutic indices (LD50/ED50) of most cannabinoids are astoundingly high. It would be extremely difficult, if not impossible, for a human or animal to suffer permanent damage due to an intake of cannabinoids, absent a targeted effort to cause such damage.
# [4] = accumulation of Δ^9-THC in adipose tissue of finishing hogs given Cannabis tincture in water; conditions: 100 mg Δ^9-THC orally each day
# humans [5] = conditions: orally administered; cited from earlier work
# [6] = accumulation of Δ^9-THC in milk of dairy water buffalo grazing Cannabis indica Himalaya Gold; format: in vivo; conditions: roughly 400 g Δ^9-THC orally per day, 20 L milk per day
# Text: In a second embodiment of the present invention, dairy water buffalo are grazed in a pasture cultivated for their consumption which contains cereals, legumes, and Cannabis indica “Himalaya Gold” (a hardy, outdoor cultivar of Cannabis). The approximate Δ^9-THC, CBN, and CBD levels of the Himalaya Gold Cannabis cultivar are 10.0%, 1.0%, and 0.3%, respectively. The animals are left to graze according to their preference, and all three types of plants are consumed in significant quantity. Particularly, the water buffalo consume about 32 kg of raw plant material per day, of which an average of 4 kg is Cannabis. Thus, roughly 400 g of Δ^9-THC is orally administered to the animals each day.
# The cannabinoids present in the Himalaya Gold Cannabis induce physiological effects which affect the composition of the water buffalo's milk. More specifically, several fat-soluble cannabinoids, including Δ^9-THC and 11-Hydroxy-Δ^9-tetrahydrocannabinol (11-OH-Δ^9-THC; an active metabolite of Δ^9-THC), accumulate in the milk during lactogenesis. The cannabinoid-containing raw milk is then harvested from the water buffalo by use of a rotary parlor milking station. […]
smiles,measurement,setting,value
"C=C(C)[C@@H]1CCC(C)=C[C@H]1c1c(O)cc(CCCCC)cc1O [CBD, cannabidiol]",median lethal dose (LD50),mice,"13,500 mg/kg"
"CCCCCc1cc(O)c2c(c1)OC(C)(C)c1ccc(C)cc1-2 [CBN, cannabinol]",median effective dose (ED50) for antinociception,[1],46.2 mg/kg
same,median lethal dose (LD50),mice,"12,700 mg/kg"
CCCCCC(C)C(C)c1cc(O)c2c(c1)OC(C)(C)C1=C2CC(C)CC1 (stereo not shown) [dimethylheptylpyran],calming effect,[2],significantly calms the chickens
same,effect on aggressive behavior,[2],inhibits aggressive behavior
[Cl-].[Na+] [sodium chloride],median lethal dose (LD50),mice,"4,000 mg/kg"
"CCCCCc1cc(O)c2c(c1)OC(C)(C)[C@@H]1CCC(C)=C[C@@H]21 [Δ^9-THC, delta-9-tetrahydrocannabinol]","LOEL for psychoactive effects, for the average 80 kg adult human",humans [3],3.2 mg
same,median effective dose (ED50) for antinociception,[1],1.0 mg/kg
same,average storage rate in adipose tissue,[4],0.1%
same,median lethal dose (LD50),mice,"21,600 mg/kg"
same,lowest observed effect level (LOEL) for psychoactive effects,humans [5],0.04 mg/kg
same,average transfer rate into milk,[6],0.15%
same,Δ^9-THC content of milk,[6],around 30 mg per L
